The record followed here is article PMC11862924, “Phenylpyrazoles as Inhibitors of the m^6A RNA-Binding Protein YTHDF2” (JACS Au, 2025).

The IC50 is the concentration that gives 50% inhibition. What is called inhibition is the change of the read-out against control, counted positive when it falls.

The test system of one data set is K562 and JAR cells. Put plainly: Dot blot assay of cellular RNA m6A methylation level. The format is cell-based, human. Conditions: different concentrations, highest 25 μM. On the procedure: JAR and K562 cells were seeded in six-well plates (1.0 × 10^6 cells/well) and incubated overnight. The cells were scraped off directly and then washed with PBS. Total RNA was then extracted with the Aurum Total RNA Mini Kit. The RNA concentration was determined by NanoDrop 2000c (Thermo) and then heated for 5 min at 95 °C. Primary antibody Rb pAb to N^6-methyladenosine (m^6A) (Abcam, ab286164, 1:1000) and secondary antibody HRP-conjugated AffiniPure Goat Anti-Rabbit IgG(H+L) (SA00001–2, 1:8000) were used. Chemiluminescent detection was performed using a ChemiDoc MP (Bio-Rad).

Another data set has as its target T1, YTHDC1 (Homo sapiens, UniProt Q96MU7).
T1 construct: YTHDC1 (residues 345–509); made in house; host or cells: Escherichia coli BL21(DE3); plasmid from the Zhou lab (Boston College)
Put plainly: EMSA with YTHDC1. The format is binding. Conditions: m6A RNA 20 nM. On the procedure: (§1) Compounds with different concentrations (3.1–100 μM) were incubated with 250 nM YTH-domain and 20 nM FAM-17mer-RNA in a buffer containing 20 mM HEPES, pH 8.2, 50 mM NaCl, 0.05% Triton X-100, and 5% v/v glycerol for 20 min at 4 °C. The samples were subjected to 12% native polyacrylamide gel and run at 120 V for 90 min at 4 °C using 0.5× TBE buffer. Gel imaging was performed in ChemiDoc MP (Bio-Rad), and Cy2/Alexa488 fluorescence was detected with a 1-min exposure time. Quantification of the gel image was performed by ImageJ.
Figure S14. The EMSA of YTHDC1 binding to the m6A RNA substrate. (A) The YTHDC1–RNA
complex formation in EMSA using m6A RNA (20 nM) and different concentrations of YTHDC1.
(§2) (1 picture or pasted object on this page, not shown here)

In data set [1] the target is T2, YTHDF1 (residues 375-552) (Homo sapiens, UniProt Q9BYJ9).
T2 construct: Plasmids of the YTH domain of YTHDF1 (residues 375–552); made in house; host or cells: Escherichia coli BL21(DE3); plasmid from the Zhou lab (Boston College)
T2 sequence (Q9BYJ9 375-552): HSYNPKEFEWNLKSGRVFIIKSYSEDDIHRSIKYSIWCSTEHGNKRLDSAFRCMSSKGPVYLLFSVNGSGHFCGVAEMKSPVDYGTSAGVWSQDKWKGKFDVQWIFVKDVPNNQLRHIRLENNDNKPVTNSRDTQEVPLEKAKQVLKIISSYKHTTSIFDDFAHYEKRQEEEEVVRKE
In words: FP assay with YTH domain of YTHDF1. Conditions: 0.5 µM YTHDF1, m6A RNA probe 4 nM. The format is binding. As to the method: (§3) The FP assay was performed in 384-well black plates (Corning no. 4514) with a total reaction volume of 15 μL. The final concentrations of protein (YTHDF2) and RNA were […], respectively, in a buffer containing 20 mM HEPES/KOH pH 7.5, 50 mM NaCl, 0.005% Tween 20, and 1 mM GSH (DTT). Compounds were incubated with protein, added FAM-m^6A RNA probe ([…](m6)ACUGUG) (purchased from IDT), and incubated at 4 °C for 30 min. The fluorescence polarization was measured using a plate reader (TECAN Spark) under an excitation wavelength of 485 nm and an emission wavelength of 535 nm with a bandwidth of 20 nm. […] The data were determined using GraphPad Prism 9.
Figure S8. The FP assay of YTHDF1 binding to the m6A RNA substrate. (A)The purification of YTHDF1 (residues 375-552), molecular weight: 21.9 kDa. (B) The anisotropy values using different concentrations of YTHDF1 with the m6A RNA probe (4 nM), which was used to decide the appropriate […] concentration for the FP (0.5 µM of YTHDF1, Z-factor: 0.65). (C) The […]
as §2

The target in data set [2] is T3, YTHDC2 (residues 1285-1424) (Homo sapiens, UniProt Q9H6S0).
T3 construct: YTHDC2 (residues 1285–1424); made in house; host or cells: Escherichia coli BL21(DE3); plasmid from the Zhou lab (Boston College)
T3 sequence (Q9H6S0 1285-1424): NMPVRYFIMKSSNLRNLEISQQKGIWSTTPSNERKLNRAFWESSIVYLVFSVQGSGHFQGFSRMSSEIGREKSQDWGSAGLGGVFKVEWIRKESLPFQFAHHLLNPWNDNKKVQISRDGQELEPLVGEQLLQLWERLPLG
In words: FP assay with YTH domain of YTHDC2. The format is binding. The following applies: 5.0 µM YTHDC2. On the procedure:
as §3
Figure S11. The FP assay of YTHDC2 binding to the m6A RNA substrate. (A)The purification of YTHDC2 (residues 1285-1424), molecular weight: 17.4 kDa. (B) The anisotropy values using different concentrations of YTHDC2 with the m6A RNA probe (4 nM), which was used to decide the appropriate YTHDC2 concentration for the FP (5.0 µM of YTHDC2, Z-factor: 0.83). (C) The […]
as §2

Data set [3] is described as follows: MTT cytotoxicity assay, JAR. The format is cell-based. Conditions: human, JAR cells, triplicates, read-out: Cytotoxicity against cancer cells (IC50), JAR. As to the method: (§4) JAR, K562, and HCT116 cells were seeded in 96-well plates (3500 cells/well) and incubated for 8 h. The medium with different concentrations of compounds (100, 33.3, 11.1, 3.7, 1.2, and 0.4 μM) was added to the 96-well plates. Data were normalized to the medium with 0.1% DMSO. After incubation for 72 h, MTT solution (5 mg/mL, 20 μL) was added per well in a dark environment and incubated for 4 h. After the medium was discarded, DMSO (150 μL) was added per well, and the absorbance was measured at 492 nm by a plate reader (TECAN Spark).

Data set [4] in a line: MTT cytotoxicity assay, K562. The format is cell-based. Conditions: human, K562 cells, triplicates, read-out: Cytotoxicity against cancer cells (IC50), K562. As to the method: as §4
The next data set deals with T4, YTHDC2 (Homo sapiens, UniProt Q9H6S0).
T4 construct: YTHDC2 (residues 1285–1424); made in house; host or cells: Escherichia coli BL21(DE3); plasmid from the Zhou lab (Boston College)
T4 sequence (Q9H6S0 1285-1424): T3 sequence (Q9H6S0 1285-1424)
Put plainly: EMSA with YTHDC2. The format is binding. The following applies: m6A RNA 20 nM, 10 µM YTHDC2. As to the method: as §1
Figure S15. EMSA using m6A RNA and YTHDC2 protein of varied concentrations as indicated.
(A) 20 nM of m6A RNA was used and 10 µM of YTHDC2 was chosen for EMSA. (B) CK-61, CK-
as §2

The nature of data set [5]: MTT cytotoxicity assay, HCT116. The following applies: human, HCT116 cells, triplicates, read-out: Cytotoxicity against cancer cells (IC50), HCT116. It is filed as cell-based. On the procedure: as §4
On the technique in general: Tetrazolium assays rely on reduction of a dye to a coloured formazan, in cell work by metabolically active cells.

Entries after “also recorded” stand apart in the source; their conditions may differ.

`O=C(O)c1ccc(-n2cc(C(=O)c3c(O)ccc4ccccc34)cn2)cc1` [CK-75]: the “effect on global m6A RNA abundance (dot blot, in words)” value (“effect on global m6A RNA abundance” for short) in the data set on K562 and JAR cells is “did not significantly impact”. Besides, the “inhibition of m6A RNA binding to YTHDC1 in EMSA (in words)” value (“inhibition of m6A RNA binding to YTHDC1” for short) on YTHDC1 is reported as “did not show detectable inhibitory activity; also recorded: did not show detectable inhibition”. Besides, in data set [1], the “inhibitory activity against YTHDF1 in FP (in words)” value is “inactive”. The “inhibitory activity against YTHDC2 in FP (in words)” value in data set [2] was “inactive”. Moreover, the figures for the IC50 at 72 h in data set [3], in data set [4] and in data set [5] were 47.5 µM, 29.7 µM and 33.3 µM, respectively. On YTHDC2, the “inhibition of m6A RNA binding to YTHDC2 in EMSA (in words)” value (from here on “inhibition of m6A RNA binding to YTHDC2”) is recorded as “did not show detectable inhibitory activity; also recorded: did not show detectable inhibition”.
With `O=C(O)c1ccc(-n2cc(C(=O)c3cc(Cl)cc(Cl)c3O)cn2)cc1` [CK-61], in the data set with K562 and JAR cells, the “effect on global m6A RNA abundance” value was “slight increase”. At YTHDC1, the “inhibition of m6A RNA binding to YTHDC1” value is recorded as “did not show detectable inhibitory activity; also recorded: no activity”. Further, the IC50 in data set [1] (read-out: IC50 against YTHDF1 in FP) turned out to be 67.5 µM. Further, in data set [2] (read-out: inhibition of YTHDC2 at 100 μM in FP, 100 μM compound), the inhibition at 100 µM stood at 36.1%. Further, the IC50 at 72 h in data set [3], in data set [4] and in data set [5] was over 50 µM each time. The “inhibition of m6A RNA binding to YTHDC2” value at YTHDC2 is recorded as “did not show detectable inhibitory activity; also recorded: no activity”.
Turning to `Cc1cc(O)c(C(=O)c2cnn(-c3ccc(C(=O)O)cc3)c2)cc1Cl` [CK-79], in the data set on K562 and JAR cells, the “effect on global m6A RNA abundance” value is reported as “did not significantly impact”. Besides, at YTHDC1, the “inhibition of m6A RNA binding to YTHDC1” value is recorded as “did not show detectable inhibitory activity; also recorded: did not show detectable inhibition”. Also, the “inhibitory activity against YTHDF1 in FP (in words)” value in data set [1] was “inactive”. Besides, the “inhibitory activity against YTHDC2 in FP (in words)” value in data set [2] is “inactive”. Besides, the values for the IC50 at 72 h in data set [3], in data set [4] and in data set [5] were 31.6 µM, 29.4 ± 16.7 µM and 33.6 ± 14.7 µM, respectively. Besides, the “inhibition of m6A RNA binding to YTHDC2” value at YTHDC2 is given as “did not show detectable inhibitory activity; also recorded: did not show detectable inhibition”.
